Reference: paper PMC7766161, “PARP Theranostic Auger Emitters Are Cytotoxic in BRCA Mutant Ovarian Cancer and Viable Tumors from Ovarian Cancer Patients Enable Ex-Vivo Screening of Tumor Response” (Molecules, 2020)

Target: T1, PARP-1 (Homo sapiens, UniProt P09874)
T1 construct: gene PARP1
Test: saturation radioligand binding in OVCAR8 wt cells (nonspecific binding with […] veliparib)
Assay type: cell-based

T1 sequence (P09874 2-1014): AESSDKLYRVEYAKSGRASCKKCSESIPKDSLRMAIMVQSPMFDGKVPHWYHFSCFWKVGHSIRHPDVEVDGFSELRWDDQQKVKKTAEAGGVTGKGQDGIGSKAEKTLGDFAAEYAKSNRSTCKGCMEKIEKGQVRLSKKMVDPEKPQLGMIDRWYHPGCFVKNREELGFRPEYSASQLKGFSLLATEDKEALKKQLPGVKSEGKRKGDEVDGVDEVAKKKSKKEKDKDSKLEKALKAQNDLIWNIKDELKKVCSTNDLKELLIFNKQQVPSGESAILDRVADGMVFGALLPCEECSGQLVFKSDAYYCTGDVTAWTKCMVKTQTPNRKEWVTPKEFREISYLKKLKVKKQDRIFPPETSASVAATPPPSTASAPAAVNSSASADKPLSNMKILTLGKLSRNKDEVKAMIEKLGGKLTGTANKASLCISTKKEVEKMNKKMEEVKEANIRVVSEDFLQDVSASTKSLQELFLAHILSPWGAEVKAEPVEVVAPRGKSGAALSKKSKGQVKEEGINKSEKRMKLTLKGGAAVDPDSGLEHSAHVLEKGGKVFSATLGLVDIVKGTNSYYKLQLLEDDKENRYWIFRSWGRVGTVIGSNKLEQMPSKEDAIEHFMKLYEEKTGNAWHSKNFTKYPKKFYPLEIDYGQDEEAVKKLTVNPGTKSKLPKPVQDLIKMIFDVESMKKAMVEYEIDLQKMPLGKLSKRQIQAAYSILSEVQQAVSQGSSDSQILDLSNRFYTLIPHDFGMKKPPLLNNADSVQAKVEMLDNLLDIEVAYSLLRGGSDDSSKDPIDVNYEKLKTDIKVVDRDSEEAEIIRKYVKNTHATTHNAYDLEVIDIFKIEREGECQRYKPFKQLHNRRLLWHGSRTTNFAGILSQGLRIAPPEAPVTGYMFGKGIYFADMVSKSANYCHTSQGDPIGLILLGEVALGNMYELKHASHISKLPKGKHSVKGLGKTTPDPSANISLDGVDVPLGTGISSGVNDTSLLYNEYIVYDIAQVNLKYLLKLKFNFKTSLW

Kd: 7.7 nM
Substance: [125I]KX1
